For assay [1], the target named is T1, Glucocorticoid receptor (Homo sapiens) (UniProt P04150).
T1 sequence (whole entry): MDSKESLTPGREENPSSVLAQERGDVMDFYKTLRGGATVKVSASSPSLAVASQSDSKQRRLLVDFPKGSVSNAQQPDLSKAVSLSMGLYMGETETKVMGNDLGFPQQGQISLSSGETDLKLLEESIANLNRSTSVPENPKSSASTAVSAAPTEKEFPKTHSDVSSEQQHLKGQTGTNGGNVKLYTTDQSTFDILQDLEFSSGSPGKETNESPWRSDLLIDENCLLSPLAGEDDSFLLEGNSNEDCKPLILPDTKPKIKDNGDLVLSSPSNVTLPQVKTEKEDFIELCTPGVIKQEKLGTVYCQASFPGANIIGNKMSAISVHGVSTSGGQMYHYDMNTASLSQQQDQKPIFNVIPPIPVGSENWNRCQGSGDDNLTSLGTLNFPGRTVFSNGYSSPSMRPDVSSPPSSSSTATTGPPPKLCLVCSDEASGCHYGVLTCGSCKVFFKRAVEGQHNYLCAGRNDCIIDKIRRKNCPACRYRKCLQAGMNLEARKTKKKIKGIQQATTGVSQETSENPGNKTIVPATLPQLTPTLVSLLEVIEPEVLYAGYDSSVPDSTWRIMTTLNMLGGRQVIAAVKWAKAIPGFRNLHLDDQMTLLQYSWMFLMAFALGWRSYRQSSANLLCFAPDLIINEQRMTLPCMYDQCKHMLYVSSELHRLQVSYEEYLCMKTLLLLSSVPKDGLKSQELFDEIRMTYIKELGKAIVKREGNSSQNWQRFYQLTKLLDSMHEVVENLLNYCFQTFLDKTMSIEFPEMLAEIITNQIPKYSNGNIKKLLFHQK
The assay can be described thus: Agonist activity at glucocorticoid receptor in human HepG2 cells co-transfected with PEPCK assessed as GRE activation by luciferase reporter gene assay relative to Dexamethasone. Format: functional, cell-based.

The target in assay [2] is T2, Androgen receptor (Homo sapiens, UniProt P10275).
T2 sequence (P10275 whole entry): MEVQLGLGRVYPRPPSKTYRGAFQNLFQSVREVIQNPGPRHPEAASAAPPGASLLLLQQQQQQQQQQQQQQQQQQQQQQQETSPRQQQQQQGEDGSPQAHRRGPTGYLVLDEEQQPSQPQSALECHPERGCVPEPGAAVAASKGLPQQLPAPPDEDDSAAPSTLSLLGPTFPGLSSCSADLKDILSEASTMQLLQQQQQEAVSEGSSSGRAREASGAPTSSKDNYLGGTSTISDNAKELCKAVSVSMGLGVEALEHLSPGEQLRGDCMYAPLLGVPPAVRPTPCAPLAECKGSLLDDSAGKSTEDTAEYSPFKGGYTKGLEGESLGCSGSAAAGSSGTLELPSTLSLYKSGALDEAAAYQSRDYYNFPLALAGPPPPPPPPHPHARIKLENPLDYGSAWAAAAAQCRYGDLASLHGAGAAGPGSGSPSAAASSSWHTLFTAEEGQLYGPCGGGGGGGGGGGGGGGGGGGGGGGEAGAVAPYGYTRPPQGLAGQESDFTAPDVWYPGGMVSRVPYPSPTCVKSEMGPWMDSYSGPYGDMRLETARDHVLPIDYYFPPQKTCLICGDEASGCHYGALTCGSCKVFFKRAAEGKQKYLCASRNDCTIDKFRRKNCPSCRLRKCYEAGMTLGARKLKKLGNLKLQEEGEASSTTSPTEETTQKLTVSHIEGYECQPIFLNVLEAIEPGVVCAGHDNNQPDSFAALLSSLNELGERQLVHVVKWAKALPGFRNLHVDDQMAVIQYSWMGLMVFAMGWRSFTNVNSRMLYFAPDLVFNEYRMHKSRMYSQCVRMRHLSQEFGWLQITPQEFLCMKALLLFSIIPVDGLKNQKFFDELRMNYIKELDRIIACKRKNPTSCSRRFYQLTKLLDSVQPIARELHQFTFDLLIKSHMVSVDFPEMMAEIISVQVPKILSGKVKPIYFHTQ
The assay can be described thus: Binding affinity to androgen receptor.

Assay [3] addresses T1, Glucocorticoid receptor (Homo sapiens). The assay can be described thus: Agonist activity at glucocorticoid receptor in human HepG2 cells co-transfected with GRE assessed as GRE activation by luciferase reporter gene assay relative to Dexamethasone. Format: functional, cell-based. More on the design: concentration or dose not given beside the values.
Assay [4] shares this target. As to the kind of experiment: Transrepression activity at glucocorticoid receptor in human NHDF cells assessed as inhibition of IL-1beta-stimulated AP1 dependent IL-6 repression by ELISA relative to Dexamethasone. Format: cell-based. Also noted: concentration or dose not given beside the values.
The target in assay [5] is T3, Glucocorticoid receptor (Homo sapiens, UniProt P04150).
T3 sequence (P04150 whole entry): T1 sequence (whole entry)
As to the kind of experiment: Transrepression activity at glucocorticoid receptor in human NHDF cells assessed as inhibition of IL-1beta-stimulated AP1 dependent IL-6 repression by ELISA. Format: cell-based.

Assay [6] deals with T3, Glucocorticoid receptor. The assay can be described thus: Agonist activity at glucocorticoid receptor in human HepG2 cells co-transfected with GRE assessed as GRE activation by luciferase reporter gene assay. Format: functional, cell-based.
Assay [7] deals with T3, Glucocorticoid receptor. The assay can be described thus: Displacement of radiolabeled Dexamethasone from glucocorticoid receptor expressed in baculovirus.
For assay [8], the target named is T1, Glucocorticoid receptor (Homo sapiens). The assay can be described thus: Transrepression activity at glucocorticoid receptor in human HepG2 cells assessed as inhibition of TNFalpha/IL1beta-stimulated NFkappaB-dependent E-selectin repression by luciferase reporter gene assay relative to Dexamethasone. More on the design: scale not given: the % may be the effect or the level left. Format: cell-based.

On to `Cc1c[nH]c2c(-c3c(F)cc4c(c3F)/C(=N/OC(C)(C)C)CC(C)(C)N4)cccc12`, for which the Activity in assay [1] amounted to 28%; in assay [3], 97%; in assay [4] it was 73%; in assay [8], 91%. The Ki in assay [2] came out at 1000 nM; in assay [7], 2.2 nM. In addition, in assay [5], the IC50 came out at 13 nM. Besides, the EC50 in assay [6] is 5 nM.
As for `CO/N=C1/c2c(cc(F)c(-c3cccc4c(C)c[nH]c34)c2F)NC(C)(C)C1O` (racemic), the Activity was determined as 79% in assay [1], 150% in assay [3], 98% in assay [4] and 96% in assay [8]. For the same compound, the Ki was 2800 nM in assay [2] and 3.8 nM in assay [7]. In addition, the IC50 in assay [5] was found to be 17 nM. In assay [6], the EC50 is 3.9 nM.
Turning to `Cc1c[nH]c2c(-c3c(F)cc4c(c3F)/C(=N/OC(C)C)CC(C)(C)N4)cccc12`, the Activity in assay [1] is 35%; in assay [3], 138%; in assay [4], 77%; in assay [8], 90%. For the same compound, the values for the Ki in assay [2] and in assay [7] were 1500 nM and 2.7 nM, respectively. The IC50 in assay [5] was determined as 11 nM. The EC50 in assay [6] was determined as 0.6 nM.
Turning to `CC1(C)C/C(=N\OC(C)(C)C)c2c(cc(F)c(-c3cccc4c(Cl)c[nH]c34)c2F)N1`, the Activity came out at 27% in assay [1], 97% in assay [3], 83% in assay [4] and 94% in assay [8]. Moreover, the Ki was 90 nM in assay [2] and 2 nM in assay [7]. Also, in assay [5], the IC50 amounted to 19 nM. Moreover, the EC50 in assay [6] was determined as 3.4 nM.
In the case of `Cc1c[nH]c2c(-c3c(F)cc4c(c3F)/C(=N/OC(C)(C)CO)CC(C)(C)N4)cccc12`, the Activity worked out at 22% in assay [1], 130% in assay [3], 67% in assay [4] and 91% in assay [8]. For the same compound, the results for the Ki in assay [2] and in assay [7] were 290 nM and 0.8 nM, respectively. In addition, the IC50 in assay [5] was found to be 65 nM. In addition, the EC50 in assay [6] was 19 nM.
